Laboratory results as given in patent publication US20080044844A1 (priority 2004, published 2008).
Where two headings read alike, the source gives them in different places.

Columns and labels:
Fiu promoter [1] = type: cell-based, E. coli
lacZ promoter = type: cell-based, E. coli
GrpE promoter [2] = type: cell-based, E. coli
GrpE promoter [3] = type: cell-based, E. coli; remark: listed apart in the source
[4] = tested on: E. coli luxCDABE promoter fusion library; type: cell-based
Fiu promoter [5] = type: cell-based, E. coli; remark: listed apart in the source
(AP-1-STRE)*2 = type: cell-based, Saccharomyces cerevisiae
LacAYZ promoter = type: cell-based, E. coli
[6] = rat, in vivo, po; cited from earlier work
STRE = type: cell-based, Saccharomyces cerevisiae
MipA promoter [7] = type: cell-based, E. coli
MipA promoter [8] = type: cell-based, E. coli; remark: listed apart in the source
yciD promoter = type: cell-based, E. coli
otsAB promoter = type: cell-based, E. coli
nhoA promoter = type: cell-based, E. coli

| Molecule | Cmax (Fiu promoter [1]) [mg/L] | EC200 (Fiu promoter [1]) [mg/L] | RRmax (Fiu promoter [1]) | t200 (Fiu promoter [1]) [min] | tmax (first value, time to reach RRmax) (Fiu promoter [1]) | tmax (second value, time to reach ΔLmax) (Fiu promoter [1]) | ΔLmax (Fiu promoter [1]) | Cmax (lacZ promoter) [mg/L] | EC200 (lacZ promoter) [mg/L] | RRmax (lacZ promoter) | t200 (lacZ promoter) [min] | tmax (first value, time to reach RRmax) (lacZ promoter) | tmax (second value, time to reach ΔLmax) (lacZ promoter) | ΔLmax (lacZ promoter) | Cmax (GrpE promoter [2]) [mg/L] | EC200 (GrpE promoter [2]) [mg/L] | t200 (GrpE promoter [2]) [min] | tmax (first value, time to reach RRmax) (GrpE promoter [2]) | tmax (second value, time to reach ΔLmax) (GrpE promoter [2]) | share of library promoters with 0 < RRmax < 2 [4] [%] | further results |
| --- | --- | --- | --- | --- | --- | --- | --- | --- | --- | --- | --- | --- | --- | --- | --- | --- | --- | --- | --- | --- | --- |
| Oc1cc(Cl)c(Cl)cc1Cl [2,4,5-Trichlorophenol] | 31 | 1.2 | 11.7 | 39 | 30/120 min | 30/120 min | 33,697 RLU | 31 | 0.8 | 16.1 | 95 | 120/120 min | 120/120 min | 74,832 RLU | 31 | 1.0 | 21 | 90/90 min | 90/90 min |  | RRmax (GrpE promoter [2]): 22.1; ΔLmax (GrpE promoter [2]): 54,432 RLU |
| Oc1c(Cl)cccc1Cl [2,6-Dichlorophenol] | 125 | 16.0 | 4.4 | 31 | 30/120 min | 30/120 min | 25,553 RLU |  |  |  |  |  |  |  | 31 | 1.2 | 29 | 90/90 min | 90/90 min |  | RRmax (GrpE promoter [2]): 19.5; ΔLmax (GrpE promoter [2]): 47,877 RLU |
| Oc1ccccc1Cl [2-Chlorophenol] | 500 | 3.4 | 5.8 | 80 | 90/120 min | 90/120 min | 11,971 RLU |  |  |  |  |  |  |  | 250 | 2.8 | 32 | 90/90 min | 90/90 min |  | RRmax (GrpE promoter [2]): 18.7; ΔLmax (GrpE promoter [2]): 33,345 RLU |
| COc1cc2c(c(OC)c1OC)-c1ccc(OC)c(=O)cc1[C@@H](NC(C)=O)CC2 [Colchicine] | 45 | 14.3 | 4.0 | 85 | 120/120 min | 120/120 min | 1,924 RLU |  |  |  |  |  |  |  |  |  |  |  |  |  |  |
| COP(=O)(OC)OC=C(Cl)Cl [DDVP, Dichlorvos] |  |  |  |  |  |  |  |  |  |  |  |  |  |  | 125 | 32.5 | 41 | 132/132 min | 132/132 min | 91.7 | Cmax (GrpE promoter [3]): 125 mg/L; share of library promoters with 2 < RRmax < 3 [4]: 5.7%; share of library promoters with 3 < RRmax < 5 [4]: 2.0%; share of library promoters with 5 < RRmax < 10 [4]: 0.4%; Cmax (Fiu promoter [5]): 500 mg/L; RRmax (Fiu promoter [5]): 5; ΔLmax (GrpE promoter [2]): 5,290 RLU |
| CCOP(=S)(OCC)Oc1ccc([N+](=O)[O-])cc1 [Ethyl Parathion] |  |  |  |  |  |  |  | 125 | 13.0 | 4.7 | 120 | 132/132 min | 132/132 min | 47,776 RLU |  |  |  |  |  | 89.6 | fold higher response ((AP-1-STRE)*2): 4-5 fold; time within which a response can be seen ((AP-1-STRE)*2): 5 to 10 min; share of library promoters with 2 < RRmax < 3 [4]: 6.3%; share of library promoters with 3 < RRmax < 5 [4]: 2.1%; share of library promoters with 5 < RRmax < 10 [4]: 1.7%; Cmax (LacAYZ promoter): 500 mg/L; RRmax (LacAYZ promoter): 8; LD50 [6]: 2 mg/kg; fold higher response (STRE): 4-5 fold; time within which a response can be seen (STRE): 5 to 10 min; Cmax (MipA promoter [7]): 500 mg/L; Cmax (MipA promoter [8]): 500 mg/L; EC200 (MipA promoter [8]): 79.0 mg/L; t200 (MipA promoter [8]): 60 min; tmax (first value, time to reach RRmax) (MipA promoter [8]): 87/110 min; tmax (second value, time to reach ΔLmax) (MipA promoter [8]): 87/110 min; ΔLmax (MipA promoter [8]): 196,600 RLU |
| CNC(=S)[S-].[Na+] [Metham Sodium] |  |  |  |  |  |  |  | 180 | 20.0 | 6.5 | 90 | 120/120 min | 120/120 min | 30,468 RLU |  |  |  |  |  |  | Cmax (MipA promoter [8]): 180 mg/L; EC200 (MipA promoter [8]): 18.0 mg/L; RRmax (MipA promoter [8]): 5.9; t200 (MipA promoter [8]): 100 min; tmax (first value, time to reach RRmax) (MipA promoter [8]): 120/120 min; tmax (second value, time to reach ΔLmax) (MipA promoter [8]): 120/120 min; ΔLmax (MipA promoter [8]): 27,745 RLU |
| CNC(=O)ON=C(C)SC [Methomyl] |  |  |  |  |  |  |  |  |  |  |  |  |  |  |  |  |  |  |  | 90.1 | response of the library promoters to the toxicant (in words) [4]: very poor responses; share of library promoters with 2 < RRmax < 3 [4]: 7.1%; share of library promoters with 3 < RRmax < 5 [4]: 2.0%; share of library promoters with 5 < RRmax < 10 [4]: 0.7%; share of library promoters with 10 < RRmax [4]: 0.1%; Cmax (yciD promoter): 2000 mg/L; RRmax (yciD promoter): 2; Cmax (otsAB promoter): 2000 mg/L; RRmax (otsAB promoter): 3; LD50 [6]: 17 mg/kg |
| C[n+]1ccc(-c2cc[n+](C)cc2)cc1 [Paraquat] | 250 | 9.8 | 16.9 | 42 | 120/60 min | 120/60 min | 29,591 RLU | 32.5 | 9.0 | 13.0 | 85 | 123/132 min | 123/132 min | 253,421 RLU |  |  |  |  |  | 71.1 | EC200 (nhoA promoter): 0.43 mg/L; t200 (nhoA promoter): 21 min; tmax (first value, time to reach RRmax) (nhoA promoter): 96/110 min; tmax (second value, time to reach ΔLmax) (nhoA promoter): 96/110 min; ΔLmax (nhoA promoter): 146,342 RLU; response of the library promoters to the toxicant (in words) [4]: strongest inducer; share of library promoters with 2 < RRmax < 3 [4]: 13.7%; share of library promoters with 3 < RRmax < 5 [4]: 7.5%; share of library promoters with 5 < RRmax < 10 [4]: 3.7%; share of library promoters with 10 < RRmax [4]: 4%; Cmax (LacAYZ promoter): 500 mg/L; RRmax (LacAYZ promoter): 28; LD50 [6]: 150 mg/kg |
| COC(=O)C=C(C)OP(=O)(OC)OC [Phosdrin] |  |  |  |  |  |  |  | 180 | 38.3 | 3.7 | 110 | 120/120 min | 120/120 min | 12,900 RLU |  |  |  |  |  |  |  |
| Botulinum Toxin A |  |  |  |  |  |  |  |  |  |  |  |  |  |  |  |  |  |  |  | 100 | response of the library promoters to the toxicant (in words) [4]: did not produce any response |
